Results published in US11628166B2, “Therapeutic uses of compounds having combined sert, 5-HT3 and 5-HT1a activity” (H. Lundbeck A/S, priority 2007, dated 2023).

Tests used:
[1] = Microdialysis, extracellular acetylcholine levels in brain of freely moving rats; assay type: in vivo, rat; conditions: 2.5-10 mg/kg s.c.
Protocol: The animals were administered 1-[2-(2,4-dimethylphenylsulfanyl)phenyl]piperazine, HBr salt.
Male Sprague-Dawley rats, initially weighing 275-300 g, were used. The animals were housed under a 12-hr light/dark cycle under controlled conditions for regular in-door temperature (21±2° C.) and humidity (55±5%) with food and tap water available ad libitum.
Rats were anaesthetised with hypnorm/dormicum (2 ml/kg) and intracerebral guide cannulas (CMA/12) were stereotaxically implanted into the brain, aiming at positioning the dialysis probe tip in the ventral hippocampus (co-ordinates: 5.6 mm posterior to bregma, lateral −5.0 mm, 7.0 mm ventral to dura) or in the prefrontal cortex (co-ordinates: 3.2 mm anterior to bregma; lateral, 0.8 mm; 4.0 mm ventral to dura). […] The body temperature of the animals was monitored by rectal probe and maintained at 37° C. […]
The compound dissolved in 10% HPbetaCD and injected subcutaneously (2.5-10 mg/kg). Doses are expressed as mg salt/kg body weight. […]
Concentration of acetylcholine (ACh) in the dialysates was analysed by means of HPLC with electrochemical detection using a mobile phase consisting of 100 mM disodium hydrogenphosphate, 2.0 mM octane sulfonic acid, 0.5 mM tetramethylammonium chloride and 0.005% MB (ESA), pH 8.0. […] The latter was detected electrochemical by using a platinum electrode (Analytical cell: ESA, model 5040). […]

[2] = Contextual fear conditioning in rats; assay type: in vivo, rat; conditions: for time spent freezing during the retention test: test 24 h after acquisition
Description: The compound administered in the present experiment was 1-[2-(2,4-dimethylphenyl-sulfanyl)phenyl]piperazine HBr salt.
We have studied the effect of the compound on acquisition, consolidation and recall of contextual fear conditioning in rats. In the fear conditioning paradigm animals learn to associate a neutral environment (context, the training chamber, CS) with an aversive experience (an electrical foot-shock, US). During re-exposure to the training chamber, animals express a freezing behaviour, which is taken as a direct measure of the fear-related memory [Pavlov J. Biol. Sci., 15, 177-182, 1980]. […] Neurosci., 106, 274-285, 1992].
Adult male Sprague-Dawley rats (weighing 250-300 g at time of training) from Charles River Laboratories, housed two per cage under a 12 h light/dark cycle, were used. Food and water were available ad libitum. Rats were used 1 week after arrival. The compound was dissolved in 10% HPbetaCD and injected subcutaneously. The drug was administered in a volume of 2.5 ml/kg.
Training and testing were conducted in a soundproof chamber (30×20×40 cm) housed in an isolated room and connected to a ventilation system. Illumination was provided by a white light (60 Watt). The floor of the chamber consisted of a metal grid attached to an electric shock generator. Prior to training and testing, the chamber was cleaned with a 70% ethanol solution. A video camera allowed for behavioral observations and recording of the training session for off-line analysis.
During the acquisition animals were allowed to freely explore the novel environment for a 1 min habituation period, which co-terminated with one inescapable foot-shock (unconditioned stimulus, US) through the electrifiable grid floor. […] Animals remained in the conditioning chamber for another 60 s after the US. Freezing behaviour was scored during the first 58 s (pre-shock acquisition; experimenter blinded to groups) to determine baseline-freezing responses to the context. At the end of the acquisition animals were gently removed and placed into their home cages. After 24 h the same animals were reintroduced into the training context (fear conditioning chamber) and a 2 min retention test was performed. During this period no foot shocks were applied. Freezing behaviour was scored during the whole test period with the experimenter blinded to groups and presented as percent of total test period.

[3] = Hygroscopicity / water absorption on exposure to humidity; assay type: physicochemical
[4] = Solubility in water; assay type: physicochemical
[5] = Clinical trial, sexually related adverse effects reported by patients; assay type: in vivo, human
Protocol: (§1) The HAM-D scale may be used to assess the severity of depression in patients by means of a 24 items questionnaire. Item 4, 5 and 6 of the scale relate to how the patients sleep, i.e., is it easy to fall asleep (insomnia Early), does the patient wake up during the night (Insomnia Middle), and does the patient wake up early in the morning (Insomnia Late). The compound was tested at 5 and 10 mg daily against placebo with approximately 100 patients per arm. […] It is well-known that sleep disturbances are a general adverse effect of most antidepressants. In particular SSRI's and compounds which inhibit the noradrenaline transporter are reported to give rise to problems with sleep initiation and maintenance and problems with insomnia are also often reported [Int.Clin.Psychpharm., 21 (suppl 1), S25-S29, 2006]. Others report that such compounds give rise to suppressed REM sleep, increased sleep latency, less efficient sleep, increase in nocturnal awakenings, and fragmentation of sleep [Hum.Psychopharm.Clin.Exp., 20, 533-559, 2005].
The above mentioned clinical trial also captured sexual adverse effects reported by the patients.

[6] = Clinical trial, HAM-D items 4, 5 and 6 (insomnia early, middle, late); assay type: in vivo, human; conditions: 5 and 10 mg daily vs placebo, 6 weeks, approx. 100 patients per arm
Protocol: as §1

[7] = Mouse intradermal formalin test; assay type: in vivo; conditions: ~20-30 minutes after formalin
Protocol: In this model, mice receive an injection of formalin (4.5%, 20 μl) into the left hind paw. The irritation caused by the formalin injection elicits a characteristic biphasic behavioural response, as quantified by the amount of time spent licking the injured paw.
The first phase (˜0-10 minutes) represents direct chemical irritation and nociception, whereas the second phase (˜20-30 minutes) is thought to represent pain of […] origin. The two phases are separated by a quiescent period in which behaviour returns to normal. The effectiveness of test compounds to reduce the painful stimuli is assessed by counting the amount of time spent licking the injured paw in the two phases.

[8] = target: Human serotonin transporter (Homo sapiens, UniProt P31645); test: Human serotonin transporter, blockade of 5-HT uptake; assay type: biochemical
Sequence of Human serotonin transporter (P31645 whole entry): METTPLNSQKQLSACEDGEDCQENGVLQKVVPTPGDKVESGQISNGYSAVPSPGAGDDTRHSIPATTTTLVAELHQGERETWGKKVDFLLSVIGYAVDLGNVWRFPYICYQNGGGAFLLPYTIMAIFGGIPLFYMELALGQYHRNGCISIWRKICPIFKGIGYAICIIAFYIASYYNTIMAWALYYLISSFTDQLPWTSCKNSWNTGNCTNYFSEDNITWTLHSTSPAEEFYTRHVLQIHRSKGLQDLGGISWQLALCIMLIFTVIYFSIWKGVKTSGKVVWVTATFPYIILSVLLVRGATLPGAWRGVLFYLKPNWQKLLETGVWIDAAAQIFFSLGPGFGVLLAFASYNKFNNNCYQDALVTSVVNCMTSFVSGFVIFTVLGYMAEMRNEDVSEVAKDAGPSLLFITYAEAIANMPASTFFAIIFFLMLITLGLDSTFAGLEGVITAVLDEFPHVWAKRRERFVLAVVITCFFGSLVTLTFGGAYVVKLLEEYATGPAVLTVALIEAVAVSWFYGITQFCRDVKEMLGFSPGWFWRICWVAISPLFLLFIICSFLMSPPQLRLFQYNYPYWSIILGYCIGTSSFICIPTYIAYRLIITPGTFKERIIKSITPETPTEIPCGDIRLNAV

Br.Cc1ccc(Sc2ccccc2N2CCNCC2)c(C)c1 [1-[2-(2,4-dimethylphenylsulfanyl)phenyl]piperazine HBr salt]
extra-cellular levels of ACh in prefrontal cortex ([1]; rat prefrontal cortex): significantly increased
extra-cellular levels of ACh in ventral hippocampus ([1]; rat ventral hippocampus): significantly increased
time spent freezing during the retention test ([2]; 5 mg/kg s.c. 1 h prior to acquisition, n=6): 39.24±13.76%
freezing behaviour during the memory test ([2]; 5 mg/kg s.c. 1 h prior to the retention test, n=9, p<0.05): 12.86±3.57%
time spent freezing during the retention test ([2]; 5 mg/kg s.c. after the acquisition session, n=8, p<0.05): 45.58±4.50%
time spent freezing during the retention test ([2]; 10 mg/kg s.c. 1 h prior to acquisition, n=10, p<0.01): 52.15±5.68%
baseline freezing behaviour before the foot shock ([2]; 1, 5 and 10 mg/kg s.c., 1 h prior to acquisition): does not affect baseline freezing behaviour

Cc1ccc(Sc2ccccc2N2CCNCC2)c(C)c1 [Crystalline base, 1-[2-(2,4-dimethylphenylsulfanyl)-phenyl]piperazine]
hygroscopicity [3]: not hygroscopic

Br.Cc1ccc(Sc2ccccc2N2CCNCC2)c(C)c1 [beta form of the hydrobromide]
solubility in water [4]: 1200 µg/mL

Br.Cc1ccc(Sc2ccccc2N2CCNCC2)c(C)c1 [alpha form of the hydrobromide]
solubility in water [4]: 2000 µg/mL

Cc1ccc(Sc2ccccc2N2CCNCC2)c(C)c1 [compound I, 1-[2-(2,4-dimethylphenyl-sulfanyl)-phenyl]piperazine]
number of patients reporting Anorgasmia ([5]; 5 mg daily): 0
number of patients reporting Ejaculation delayed ([5]; 5 mg daily): 0
number of patients reporting Erectile dysfunction ([5]; 5 mg daily): 0
number of patients reporting Libido decreased ([5]; 5 mg daily): 1
number of patients reporting Loss of libido ([5]; 5 mg daily): 1
number of patients reporting Orgasm abnormal ([5]; 5 mg daily): 0
number of patients reporting Orgasmic sensation decreased ([5]; 5 mg daily): 0
number of patients reporting Anorgasmia ([5]; 10 mg daily): 0
number of patients reporting Ejaculation delayed ([5]; 10 mg daily): 0
number of patients reporting Erectile dysfunction ([5]; 10 mg daily): 0
number of patients reporting Libido decreased ([5]; 10 mg daily): 1
number of patients reporting Loss of libido ([5]; 10 mg daily): 0
number of patients reporting Orgasm abnormal ([5]; 10 mg daily): 0
number of patients reporting Orgasmic sensation decreased ([5]; 10 mg daily): 0
change in sleep pattern, HAM-D items 4-6 [6]: large and dose dependent improvement of the sleep pattern
second phase pain scores (time spent licking the paw) [7]: significant reduction
IC50 [8]: 5.4 nM

Br.Cc1ccc(Sc2ccccc2N2CCNCC2)c(C)c1 [hemi hydrate of the hydrobromide]
water content ([3]; room temperature and 95% RH): about 3.7%

Br.Cc1ccc(Sc2ccccc2N2CCNCC2)c(C)c1 [gamma form of the hydrobromide]
water absorbed ([3]; 30% RH at room temperature): about 2%
